The source of these data is publication PMC11879040, “Advancing systemic toxicity risk assessment: Evaluation of a NAM-based toolbox approach” (Toxicological Sciences, 2024).

Like-named read-outs stand apart in the source and are kept apart here.

Experiment [1] concerns the target Sodium-dependent noradrenaline transporter, SLC6A2 (h) (Homo sapiens, UniProt P23975). The note with it: ligand/control protriptyline.
The target in experiment [2] is Kappa-type opioid receptor OPRK1 (h) (Homo sapiens, UniProt P41145). The settings on record: control U 50488.
The test system of experiment [3] is Tubulin (r). Put plainly: IPP Tubulin binding. Also on record: species or system rat.
Experiment [4] addresses T1, Alpha-1A adrenergic receptor, ADRA1A (h) (Homo sapiens, UniProt P35348).
T1 sequence (P35348 1-466): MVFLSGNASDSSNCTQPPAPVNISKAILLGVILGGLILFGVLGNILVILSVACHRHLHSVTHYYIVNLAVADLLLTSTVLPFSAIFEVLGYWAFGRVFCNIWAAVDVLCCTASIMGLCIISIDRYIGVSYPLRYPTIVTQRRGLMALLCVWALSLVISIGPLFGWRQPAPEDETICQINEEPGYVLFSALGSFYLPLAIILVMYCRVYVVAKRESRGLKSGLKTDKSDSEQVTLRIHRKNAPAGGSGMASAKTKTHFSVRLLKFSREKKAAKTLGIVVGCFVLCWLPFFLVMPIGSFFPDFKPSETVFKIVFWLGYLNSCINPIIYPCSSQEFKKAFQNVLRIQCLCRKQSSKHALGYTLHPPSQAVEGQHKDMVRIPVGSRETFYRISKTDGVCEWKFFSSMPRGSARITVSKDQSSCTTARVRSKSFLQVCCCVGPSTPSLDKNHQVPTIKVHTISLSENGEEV
The note with it: control WB 4101.

Experiment [5] deals with Cannabinoid receptor 1, CNR1 (h) (Homo sapiens, UniProt P21554). The class given is binding. The note with it: control CP 55940.
In experiment [6] the target is T2, 5-hydroxytryptamine receptor 3A, HTR3A (h) (Homo sapiens, UniProt P46098).
T2 sequence (P46098 24-478): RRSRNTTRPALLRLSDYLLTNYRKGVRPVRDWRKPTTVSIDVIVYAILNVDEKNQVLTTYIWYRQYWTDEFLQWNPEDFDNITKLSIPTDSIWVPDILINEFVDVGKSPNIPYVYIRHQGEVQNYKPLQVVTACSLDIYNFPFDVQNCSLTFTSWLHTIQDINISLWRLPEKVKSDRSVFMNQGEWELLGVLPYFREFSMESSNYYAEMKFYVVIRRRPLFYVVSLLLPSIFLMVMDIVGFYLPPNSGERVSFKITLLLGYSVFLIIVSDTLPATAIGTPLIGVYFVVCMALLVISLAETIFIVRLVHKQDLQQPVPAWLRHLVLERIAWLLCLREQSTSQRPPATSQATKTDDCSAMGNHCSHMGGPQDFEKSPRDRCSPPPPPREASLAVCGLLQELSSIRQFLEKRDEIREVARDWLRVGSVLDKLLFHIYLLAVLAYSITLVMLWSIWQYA
The note with it: control MDL 72222.

In experiment [7] the target is Dopamine receptor D2, DRD2 (h) (Homo sapiens, UniProt P14416). The note with it: control 7-OH-DPAT.
For experiment [8], the system named is MCF7 cells. The experiment is described as follows: High-throughput transcriptomics (HTTr, TempO-Seq), MCF7, 24 h. It counts as cell-based, human. The note with it: MCF-7; for pod_httr_bifrost PoD: HTTr BIFROST PoD; for podl_path_minbmd PoD: HTTr minimum pathway BMD(L). Here is the method:
HepG2, HepaRG, and MCF7 cells were treated with each compound for 24 h across a dose range of 7 concentrations and lysed using TempO-Seq lysis buffer (BioSpyder Technologies, proprietary kit, see [Middleton et al. 2022] for method details). Sequencing was performed using TempO-Seq (BioClavis) version 2 of the human whole transcriptome panel and analyzed as described previously in Middleton et al.

Experiment [9] addresses Sodium-dependent serotonin transporter, SLC6A4 (h) (Homo sapiens, UniProt P31645). The class given is binding. The note with it: control imipramine.
Experiment [10] has as its target T3, Adenosine receptor A2a, ADORA2A (h) (Homo sapiens, UniProt P29274).
T3 construct: purchased Eurofins Cerep (SafetyScreen44-based IPP panel)
The experiment is described as follows: IPP ADORA2A binding (agonist radioligand). The settings on record: control NECA.

In experiment [11] the target is T4, Cholecystokinin receptor type A, CCKAR (h) (Homo sapiens, UniProt P32238).
T4 sequence (P32238 1-428): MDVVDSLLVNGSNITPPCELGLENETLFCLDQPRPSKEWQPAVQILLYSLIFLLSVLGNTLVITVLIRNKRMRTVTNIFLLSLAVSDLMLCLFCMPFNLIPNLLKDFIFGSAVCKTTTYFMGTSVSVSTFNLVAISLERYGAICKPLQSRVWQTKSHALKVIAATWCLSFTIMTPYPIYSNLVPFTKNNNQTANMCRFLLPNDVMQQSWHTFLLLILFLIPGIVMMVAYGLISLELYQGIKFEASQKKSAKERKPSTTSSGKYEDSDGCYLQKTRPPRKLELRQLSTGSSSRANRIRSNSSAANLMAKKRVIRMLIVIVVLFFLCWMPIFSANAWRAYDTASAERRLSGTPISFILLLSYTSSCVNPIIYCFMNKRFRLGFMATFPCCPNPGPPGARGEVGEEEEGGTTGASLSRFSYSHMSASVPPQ
The experiment is described as follows: IPP CCKAR binding (agonist radioligand). The note with it: control CCK-8s.

Experiment [12] deals with T5, Peroxisome proliferator-activated receptor alpha, PPARA (h) (Homo sapiens, UniProt Q07869).
T5 sequence (Q07869 1-468): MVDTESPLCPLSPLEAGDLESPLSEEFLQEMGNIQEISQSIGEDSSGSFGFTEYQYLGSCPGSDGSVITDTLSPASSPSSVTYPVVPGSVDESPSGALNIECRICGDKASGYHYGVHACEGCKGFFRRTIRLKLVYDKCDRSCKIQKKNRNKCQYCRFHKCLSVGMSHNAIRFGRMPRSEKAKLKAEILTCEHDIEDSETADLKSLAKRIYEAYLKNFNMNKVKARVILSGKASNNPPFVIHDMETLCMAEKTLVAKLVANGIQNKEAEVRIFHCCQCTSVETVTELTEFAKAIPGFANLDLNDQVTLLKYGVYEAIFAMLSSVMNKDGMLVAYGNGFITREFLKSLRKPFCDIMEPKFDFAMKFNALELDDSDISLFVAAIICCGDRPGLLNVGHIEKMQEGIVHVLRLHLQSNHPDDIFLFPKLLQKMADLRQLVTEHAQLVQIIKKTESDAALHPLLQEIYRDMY
Put plainly: IPP PPARA coactivator recruitment (agonist). The settings on record: 10 uM, GW 7647 for control. It counts as biochemical.

The mark [13] stands for this setting: 10 uM, ligand/control Colchicine.

T3 sequence (P29274 whole entry): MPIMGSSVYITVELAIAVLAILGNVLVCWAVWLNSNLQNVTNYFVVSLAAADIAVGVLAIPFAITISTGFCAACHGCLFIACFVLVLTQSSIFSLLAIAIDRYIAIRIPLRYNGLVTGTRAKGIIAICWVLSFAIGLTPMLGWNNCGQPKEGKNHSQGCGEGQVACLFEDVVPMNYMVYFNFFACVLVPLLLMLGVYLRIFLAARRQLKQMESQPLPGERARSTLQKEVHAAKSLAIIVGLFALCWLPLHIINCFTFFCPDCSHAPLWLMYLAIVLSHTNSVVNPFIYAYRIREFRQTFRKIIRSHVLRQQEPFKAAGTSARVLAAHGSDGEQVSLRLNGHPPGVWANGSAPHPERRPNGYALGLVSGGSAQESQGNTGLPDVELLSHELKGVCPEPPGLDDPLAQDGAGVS
Kappa-type opioid receptor OPRK1 (h), sequence (P41145 whole entry): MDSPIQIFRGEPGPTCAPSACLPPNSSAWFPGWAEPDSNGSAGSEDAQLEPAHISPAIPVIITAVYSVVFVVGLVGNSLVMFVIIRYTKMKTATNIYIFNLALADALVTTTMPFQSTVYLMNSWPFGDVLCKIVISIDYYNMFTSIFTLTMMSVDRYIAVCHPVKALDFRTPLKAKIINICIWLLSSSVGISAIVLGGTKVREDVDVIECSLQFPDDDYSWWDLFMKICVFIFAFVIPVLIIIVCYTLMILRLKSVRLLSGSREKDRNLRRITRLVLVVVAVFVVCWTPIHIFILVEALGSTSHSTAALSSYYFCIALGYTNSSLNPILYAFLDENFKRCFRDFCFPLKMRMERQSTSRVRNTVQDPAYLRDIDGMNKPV
Dopamine receptor D2, DRD2 (h), sequence (P14416 whole entry): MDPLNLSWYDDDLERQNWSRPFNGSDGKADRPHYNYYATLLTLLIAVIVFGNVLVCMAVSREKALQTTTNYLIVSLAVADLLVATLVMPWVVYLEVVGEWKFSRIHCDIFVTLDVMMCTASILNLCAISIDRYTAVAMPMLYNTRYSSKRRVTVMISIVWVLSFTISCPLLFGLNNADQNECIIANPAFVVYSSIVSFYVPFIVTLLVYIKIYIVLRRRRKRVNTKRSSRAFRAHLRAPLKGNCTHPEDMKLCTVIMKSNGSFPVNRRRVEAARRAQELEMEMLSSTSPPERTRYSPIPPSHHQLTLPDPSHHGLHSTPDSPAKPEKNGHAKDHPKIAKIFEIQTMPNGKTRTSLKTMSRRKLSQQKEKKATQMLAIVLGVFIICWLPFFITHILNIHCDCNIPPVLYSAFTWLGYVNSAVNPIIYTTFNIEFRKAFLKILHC
Cannabinoid receptor 1, CNR1 (h), sequence (P21554 whole entry): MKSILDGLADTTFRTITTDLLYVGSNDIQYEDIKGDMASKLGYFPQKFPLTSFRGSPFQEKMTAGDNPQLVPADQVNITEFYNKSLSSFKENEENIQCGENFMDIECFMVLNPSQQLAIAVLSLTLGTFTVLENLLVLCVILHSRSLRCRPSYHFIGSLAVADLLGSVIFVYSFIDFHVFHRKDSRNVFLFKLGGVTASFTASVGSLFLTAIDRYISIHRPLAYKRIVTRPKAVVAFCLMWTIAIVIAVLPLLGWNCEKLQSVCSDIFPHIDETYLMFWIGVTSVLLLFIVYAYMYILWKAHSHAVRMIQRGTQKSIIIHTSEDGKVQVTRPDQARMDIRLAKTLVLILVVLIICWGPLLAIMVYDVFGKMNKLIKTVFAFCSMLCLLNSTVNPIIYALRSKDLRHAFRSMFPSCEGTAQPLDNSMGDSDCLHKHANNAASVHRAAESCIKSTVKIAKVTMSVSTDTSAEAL
Sodium-dependent serotonin transporter, SLC6A4 (h), sequence (P31645 whole entry): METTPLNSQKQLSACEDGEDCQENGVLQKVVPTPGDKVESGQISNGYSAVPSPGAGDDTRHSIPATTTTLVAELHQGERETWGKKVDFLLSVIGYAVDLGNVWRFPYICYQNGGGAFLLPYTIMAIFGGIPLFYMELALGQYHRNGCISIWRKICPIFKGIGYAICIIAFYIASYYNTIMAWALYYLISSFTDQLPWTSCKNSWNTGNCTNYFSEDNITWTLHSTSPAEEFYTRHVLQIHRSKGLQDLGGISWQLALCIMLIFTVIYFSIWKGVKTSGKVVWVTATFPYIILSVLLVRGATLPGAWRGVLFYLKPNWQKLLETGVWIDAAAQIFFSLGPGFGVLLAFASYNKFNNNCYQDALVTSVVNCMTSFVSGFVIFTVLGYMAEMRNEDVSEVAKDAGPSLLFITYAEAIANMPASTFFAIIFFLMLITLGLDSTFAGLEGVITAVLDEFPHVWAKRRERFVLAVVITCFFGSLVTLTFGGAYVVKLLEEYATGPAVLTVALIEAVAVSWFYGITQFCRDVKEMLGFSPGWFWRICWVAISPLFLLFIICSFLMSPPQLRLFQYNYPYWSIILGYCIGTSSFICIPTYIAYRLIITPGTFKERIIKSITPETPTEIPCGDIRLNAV
Sodium-dependent noradrenaline transporter, SLC6A2 (h), sequence (P23975 whole entry): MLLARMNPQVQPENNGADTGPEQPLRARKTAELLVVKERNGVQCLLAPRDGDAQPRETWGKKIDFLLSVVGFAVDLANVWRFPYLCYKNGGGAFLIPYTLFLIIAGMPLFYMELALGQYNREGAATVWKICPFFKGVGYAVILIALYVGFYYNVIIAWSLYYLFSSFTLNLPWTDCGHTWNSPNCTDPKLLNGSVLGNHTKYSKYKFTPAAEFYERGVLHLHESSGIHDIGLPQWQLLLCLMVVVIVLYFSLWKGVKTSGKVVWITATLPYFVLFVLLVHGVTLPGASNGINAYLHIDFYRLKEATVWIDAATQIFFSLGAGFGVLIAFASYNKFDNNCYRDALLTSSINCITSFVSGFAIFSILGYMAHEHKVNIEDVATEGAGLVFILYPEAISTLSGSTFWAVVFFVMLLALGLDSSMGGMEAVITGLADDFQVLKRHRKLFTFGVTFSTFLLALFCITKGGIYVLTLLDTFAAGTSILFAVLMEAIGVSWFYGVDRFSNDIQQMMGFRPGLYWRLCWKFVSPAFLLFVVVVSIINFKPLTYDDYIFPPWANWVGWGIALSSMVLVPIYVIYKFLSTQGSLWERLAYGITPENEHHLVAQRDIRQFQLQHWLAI

Consider `CCOP(=S)(OCC)Oc1nc(Cl)c(Cl)cc1Cl` [Chlorpyrifos, O,O-Diethyl O-(3,5,6-trichloropyridin-2-yl) phosphorothioate], for which the “IPP screening %, Specific binding” value is 63.4% in experiment [1] (10 uM) and -20.0% in experiment [3] (setting [13]). Also, the Specific binding in experiment [2] (IPP screening at 10 uM) is reported as 27.7%; in [4] (IPP screening at 10 uM) it was 5.4%; in experiment [5] (IPP screening at 10 uM), 26.0%; in experiment [6] (IPP screening at 10 uM) it was -1.0%; in [7] (IPP screening at 10 uM), 12.6%; in experiment [9] (IPP screening at 10 uM) it was -9.1%. Also, the Specific binding in experiment [10] (IPP screening at 10 uM) stood at 15.6%; in experiment [11] (IPP screening at 10 uM) it was 55.2%. In addition, in experiment [8], the “pod_httr_bifrost PoD” value was 0.08218 µM. In addition, the “podl_path_minbmd PoD” value in experiment [8] is recorded as 3.743 µM.

For the compound `CC(C)(C)c1ccc(CCOc2ncnc3ccccc23)cc1` [Fenazaquin, 4-[2-(4-tert-Butylphenyl)ethoxy]quinazoline], in experiment [12], the “IPP screening %, Coactivator recruitment” value was found to be 1.2%. Further, the “IPP screening %, Specific binding” value in experiment [1] (10 uM) is 69.3%; in experiment [3] (setting [13]) it was -2.0%. The Specific binding is 56.7% in [2] (IPP screening at 10 uM); 35.8% in experiment [4] (IPP screening at 10 uM); 57.0% in experiment [5] (IPP screening at 10 uM); -0.1% in [6] (IPP screening at 10 uM); 16.5% in experiment [7] (IPP screening at 10 uM); 4.6% in experiment [9] (IPP screening at 10 uM). Also, the Specific binding in [10] (IPP screening at 10 uM) worked out at 47.1%; in experiment [11] (IPP screening at 10 uM) it was 60.9%. For the same compound, the “pod_httr_bifrost PoD” value in experiment [8] amounted to 0.001313 µM. In experiment [8], the “podl_path_minbmd PoD” value is recorded as 0.3873 µM.

With `CC1(C)O[C@@H]2[C@@H](CO[C@@]3(COS(N)(=O)=O)OC(C)(C)O[C@@H]23)O1` [Topiramate, [(3aS,5aR,8aR,8bS)-2,2,7,7-Tetramethyltetrahydro-2H,3aH,7H-bis[1,3]dioxolo[4,5-b:4',5'-d]pyran-3a-yl]methyl sulfamate (non-preferred name)], the “IPP screening %, Specific binding” value in experiment [1] (100 uM) is 5.7%; in [3] (100 uM, ligand/control Colchicine) it was 5%. Besides, the Specific binding is on record as 3.7% in [2] (IPP screening at 100 uM); 2.2% in experiment [4] (IPP screening at 100 uM); 10.5% in experiment [5] (IPP screening at 100 uM); -1.3% in experiment [6] (IPP screening at 100 uM); 13.3% in experiment [7] (IPP screening at 100 uM); 3.5% in experiment [9] (IPP screening at 100 uM). The results for the Specific binding in experiment [10] (IPP screening at 100 uM) and in experiment [11] (IPP screening at 100 uM) were 0.9% and 9.6%, respectively. Besides, the “pod_httr_bifrost PoD” value in experiment [8] was found to be 22.6252 µM. Further, the “podl_path_minbmd PoD” value in experiment [8] worked out at 512.687 µM.

Turning to “(4S,4aR,5S,5aR,6S,12aS)-4-(Dimethylamino)-3,5,6,10,12,12a-hexahydroxy-6-methyl-1,11-dioxo-1,4,4a,5,5a,6,11,12a-octahydrotetracene-2-carboxamide--hydrogen chloride (1/1) [Oxytetracycline hydrochloride]”, the “IPP screening %, Coactivator recruitment” value in experiment [12] is recorded as -0.7%. Moreover, the figures for the “IPP screening %, Specific binding” value in experiment [1] (10 uM) and in experiment [3] (setting [13]) were -8.5% and -3.0%, respectively. Moreover, the Specific binding in experiment [2] (IPP screening at 10 uM) is 7.3%; in [4] (IPP screening at 10 uM), 6.2%; in experiment [5] (IPP screening at 10 uM), 25.7%; in [6] (IPP screening at 10 uM), -6.5%; in experiment [7] (IPP screening at 10 uM) it was 22.7%; in [10] (IPP screening at 10 uM), 7.5%. For the same compound, the Specific binding in experiment [11] (IPP screening at 10 uM) is on record as 7.8%.

Turning to “mixture of 2- and 3-tert-butyl-4-methoxyphenol [Butylated Hydroxyanisole]”, the “IPP screening %, Coactivator recruitment” value in [12] is -0.3%. Further, the “IPP screening %, Specific binding” value in [1] (10 uM) is reported as 13.9%; in experiment [3], -5.0%. The Specific binding was 13.5% in experiment [2] (IPP screening at 10 uM); 20.2% in experiment [4] (IPP screening at 10 uM); -27.5% in [5] (IPP screening at 10 uM); 15.3% in experiment [6] (IPP screening at 10 uM); -16.2% in experiment [7] (IPP screening at 10 uM); 2.8% in experiment [9] (IPP screening at 10 uM). In addition, the Specific binding stood at 2.8% in experiment [10] (IPP screening at 10 uM) and 4.2% in [11] (IPP screening at 10 uM).
